Numbers after ± are expanded uncertainties.
Tests used:
[1] = Solid-liquid equilibrium temperature; settings: Crystal, visual observation
[2] = Crystal
[3] = Molar enthalpy of transition or fusion; settings: Crystal; DSC

Solid-liquid equilibrium temperature ([1]; 100 kPa)	Solid-liquid equilibrium temperature ([1]; 20000 kPa)	Solid-liquid equilibrium temperature ([1]; 40000 kPa)	Solid-liquid equilibrium temperature ([1]; 60000 kPa)	Solid-liquid equilibrium temperature ([1]; 80000 kPa)	Normal melting temperature ([2]; DTA)	Normal melting temperature ([2]; visual observation)	Molar enthalpy of transition or fusion [3]	Compound
272.3 ± 0.4 K	276.4 ± 0.5 K	280.3 ± 0.5 K	284 ± 0.5 K	287.4 ± 0.5 K	-0.9 ± 0.5 °C	-0.8 ± 0.5 °C	9.18 ± 0.311 kcal/mol	CCCCCCCCCCCC(=O)OCC [ethyl dodecanoate]
297.6 ± 0.4 K	302 ± 0.5 K	306.4 ± 0.5 K	310.3 ± 0.5 K	314.3 ± 0.5 K	24.2 ± 0.5 °C	24.5 ± 0.5 °C	13.3 ± 0.359 kcal/mol	CCCCCCCCCCCCCCCC(=O)OCC [ethyl hexadecanoate]
285.8 ± 0.4 K	289.9 ± 0.5 K	294.1 ± 0.5 K	298 ± 0.5 K	301.9 ± 0.5 K	13.2 ± 0.5 °C	12.7 ± 0.5 °C	11.3 ± 0.335 kcal/mol	CCCCCCCCCCCCCC(=O)OCC [ethyl tetradecanoate]

— the NIST ThermoML archive (doi:10.1016/j.fluid.2014.09.007)
